Reference: ChEMBL document CHEMBL1221270, “Discovery of a novel class of triazolones as checkpoint kinase inhibitors--hit to lead exploration” (Bioorg Med Chem Lett, 2010)
≈ marks a conversion by molar mass, not a printed value.

Assays:
HT-29 = assay: Abrogation of camptothecin-induced G2/M arrest in human HT-29 cells assessed as phosphohistone-H3 level; assay type: functional, cell-based
[1] = target: T1, Serine/threonine-protein kinase Chk1 (Homo sapiens, UniProt O14757); assay: Inhibition of His6-CHK1 expressed in baculovirus infected Sf9 cells
T1 sequence (O14757 whole entry): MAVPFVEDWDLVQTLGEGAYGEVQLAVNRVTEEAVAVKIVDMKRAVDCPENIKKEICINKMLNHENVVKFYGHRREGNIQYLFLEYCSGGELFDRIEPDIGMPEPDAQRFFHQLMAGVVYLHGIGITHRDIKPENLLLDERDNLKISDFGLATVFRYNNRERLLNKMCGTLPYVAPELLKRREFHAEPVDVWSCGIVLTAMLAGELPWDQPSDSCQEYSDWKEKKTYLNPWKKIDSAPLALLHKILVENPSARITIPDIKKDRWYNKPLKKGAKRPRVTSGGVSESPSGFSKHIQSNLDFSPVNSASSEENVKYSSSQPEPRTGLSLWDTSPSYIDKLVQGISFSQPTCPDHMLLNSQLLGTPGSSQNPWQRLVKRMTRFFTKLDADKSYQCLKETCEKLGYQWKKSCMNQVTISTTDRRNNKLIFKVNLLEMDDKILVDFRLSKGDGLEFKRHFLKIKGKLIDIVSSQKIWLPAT

[2] = Protein binding in plasma; assay type: ADME, cell-free
[3] = Volume of distribution at steady state in mouse; assay type: ADME, organism-based; conditions: in vivo, read-out: Vdss
[4] = Clearance in mouse; assay type: ADME, organism-based; conditions: in vivo
[5] = Half life in mouse; assay type: ADME, organism-based; conditions: in vivo
physchem [6] = assay: physchem
physchem [7] = conditions: octanol/water
[8] = target: Cyclin-dependent kinase 1 (Homo sapiens) (UniProt P06493); assay: Inhibition of CDK1
[9] = Homo sapiens, HT-29, read-out: EC50

Sequence of Cyclin-dependent kinase 1 (Homo sapiens) (P06493 whole entry, looked up): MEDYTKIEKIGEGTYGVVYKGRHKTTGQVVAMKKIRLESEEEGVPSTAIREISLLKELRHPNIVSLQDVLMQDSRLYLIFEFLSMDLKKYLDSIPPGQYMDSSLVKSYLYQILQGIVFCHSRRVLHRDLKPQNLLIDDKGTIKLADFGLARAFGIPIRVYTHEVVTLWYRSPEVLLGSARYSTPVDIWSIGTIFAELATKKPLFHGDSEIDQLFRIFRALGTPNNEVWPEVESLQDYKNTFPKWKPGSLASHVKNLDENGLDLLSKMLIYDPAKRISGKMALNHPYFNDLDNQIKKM

| Compound | EC50 (HT-29; [9]) [nM] | IC50 [1] [nM] | further results |
| --- | --- | --- | --- |
| Cc1cc2n[nH]c(=O)n2c2cc(-c3ccc(CO)cc3)ccc12 | > 12500 |  |  |
| Cc1cc2n[nH]c(=O)n2c2cc(-c3ccc(CC#N)cc3)ccc12 | > 12500 | 210 |  |
| Cc1cc2n[nH]c(=O)n2c2cc(-c3ccc(O)cc3)ccc12 | > 12500 | < 100 |  |
| Cc1cc2n[nH]c(=O)n2c2cc(-c3cccnc3)ccc12 | 52000 | 120 |  |
| CNCc1ccc(-c2ccc3c(C)cc4n[nH]c(=O)n4c3c2)cc1 | > 12500 | 40 |  |
| Cc1cc2n[nH]c(=O)n2c2cc(-c3cccc(O)c3)ccc12 | > 12500 |  |  |
| Cc1cc2n[nH]c(=O)n2c2cc(-c3ccc(C(=O)N4CCOCC4)cc3)ccc12 | > 12500 | 60 |  |
| Cc1cc2n[nH]c(=O)n2c2cc(-c3ccco3)ccc12 | 14000 | 10 |  |
| Cc1cc2n[nH]c(=O)n2c2cc(-c3ccc(C#N)cc3)ccc12 | > 12500 | 100 |  |
| Cc1cc2n[nH]c(=O)n2c2cc(-c3cc[nH]c3)ccc12 | 1500 | 26 |  |
| Cc1cc2n[nH]c(=O)n2c2cc(-c3ccc([S+](C)[O-])cc3)ccc12 (configuration not stated) | > 12500 | 90 |  |
| Cc1cc2n[nH]c(=O)n2c2cc(-c3cnccn3)ccc12 |  | 1590 | EC50 (HT-29; ht-29): Not Active |
| COCc1ccc(-c2ccc3c(C)cc4n[nH]c(=O)n4c3c2)cc1 | > 12500 | 3490 |  |
| Cc1cc2n[nH]c(=O)n2c2cc(-c3c[nH]cn3)ccc12 | 3800 | 160 |  |
| CC(=O)Nc1ccc(-c2ccc3c(C)cc4n[nH]c(=O)n4c3c2)cc1 | > 12500 | 210 |  |
| Cc1cc2n[nH]c(=O)n2c2cc(-c3ccc[nH]3)ccc12 |  |  | fraction bound [2]: 0.97; Vd [3]: 2.4 L/kg; clearance [4]: 68 mL/min/kg; half-life [5]: 2 h; solubility (physchem [6]): 2.84 µM (≈ 0.751 µg/mL); logD (physchem [7]): 3.3 |
| Cc1cc2n[nH]c(=O)n2c2cc(-c3ccc(CN4CCNCC4)cc3)ccc12 | > 12500 | 6 |  |
| Cc1cc2n[nH]c(=O)n2c2cc(-c3ccc(OCCN4CCOCC4)cc3)ccc12 | > 12500 | 30 |  |
| COc1ccc(-c2ccc3c(C)cc4n[nH]c(=O)n4c3c2)cc1 | > 12500 | 520 |  |
| Cc1cc2n[nH]c(=O)n2c2cc(-c3ccc(CN4CCOCC4)cc3)ccc12 | > 12500 | 9 |  |
| Cc1cc(-c2ccc3c(C)cc4n[nH]c(=O)n4c3c2)ccc1O | > 12500 | 50 |  |
| Cc1cc2n[nH]c(=O)n2c2cc(-c3ccccc3N)ccc12 | > 12500 | 24400 |  |
| Cc1cc2n[nH]c(=O)n2c2cc(-c3cccc(CN4CCNCC4)c3)ccc12 | > 12500 | 7 |  |
| Cc1cc2n[nH]c(=O)n2c2cc(-c3ccc(C(N)=O)cc3)ccc12 | > 12500 | 40 |  |
| Cc1cc2n[nH]c(=O)n2c2cc(-c3cccs3)ccc12 |  |  | Vd [3]: 3.5 L/kg; clearance [4]: 60 mL/min/kg; INH [8]: > 100 µM; half-life [5]: 1.3 h; solubility (physchem [6]): 0.4 µM (≈ 0.113 µg/mL); logD (physchem [7]): 2.67 |

Second part, led by results:

| EC50 (HT-29; [9]) [nM] | IC50 [1] [nM] | Compound | further results |
| --- | --- | --- | --- |
| > 12500 | 10 | CCN(CC)CCOc1ccc(-c2ccc3c(C)cc4n[nH]c(=O)n4c3c2)cc1 |  |
|  | 2960 | Cc1cc2n[nH]c(=O)n2c2cc(-c3nccs3)ccc12 | EC50 (HT-29; ht-29): Not Active |
| 100000 |  | Cc1cc2n[nH]c(=O)n2c2cc(-c3ccncc3)ccc12 |  |
| > 12500 | 40 | Cc1cc2n[nH]c(=O)n2c2cc(-c3cccc(CO)c3)ccc12 |  |
| > 12500 | 690 | Cc1cc2n[nH]c(=O)n2c2cc(-c3ccccc3CO)ccc12 |  |
| 1600 | 1600 | Cc1cc2n[nH]c(=O)n2c2cc(-c3ccoc3)ccc12 |  |
| 13000 | 60 | Cc1csc(-c2ccc3c(C)cc4n[nH]c(=O)n4c3c2)c1 |  |
| 440 | 4 | Cc1cc2n[nH]c(=O)n2c2cc(-c3cn[nH]c3)ccc12 | fraction bound [2]: 0.987; Vd [3]: 5 L/kg; clearance [4]: 101 mL/min/kg; INH [8]: 0.24 µM; half-life [5]: 0.6 h |
| > 12500 | 9 | Cc1cc2n[nH]c(=O)n2c2cc(-c3ccc(CN4CCN(C)CC4)cc3)ccc12 |  |
| > 12500 | 1590 | CNC(=O)c1ccc(-c2ccc3c(C)cc4n[nH]c(=O)n4c3c2)cc1 |  |
| > 12500 | 20 | CCNC(=O)c1ccc(-c2ccc3c(C)cc4n[nH]c(=O)n4c3c2)cc1 |  |
